# Measurements published in patent US20250186386A1, “METHODS OF REDUCING THE NEED FOR PERIPHERAL ARTERIAL REVASCULARIZATION IN A STATIN-TREATED SUBJECT” (AMARIN PHARMACEUTICALS IRELAND LIMITED, priority 2018, published 2025).
# Read-outs that look alike come from different tables or passages of the source.
# Columns and labels:
# [1] = REDUCE-IT: treatment-emergent adverse events of the safety population
# Protocol: Specification of Variables and Procedures: Safety assessments included adverse events, clinical laboratory measurements (chemistry, hematology), 12-lead ECGs, vital signs (systolic and diastolic blood pressure, heart rate, respiratory rate, and body temperature), weight, waist circumference, and physical examinations as per Study Procedures in Table 1. […] All laboratory test results were evaluated by the investigator as to their clinical significance. Any observations at physical examinations or laboratory values considered by the investigator to be clinically significant were considered an adverse event.
# An adverse event can therefore be any unfavorable and/or unintended sign (including an abnormal laboratory finding), symptom, or disease temporally associated with the use of an investigational medication product, whether or not related to the investigational medication product. All adverse events, including observed or volunteered problems, complaints, or symptoms, were recorded on the appropriate CRF. Each adverse event was evaluated for duration, intensity, and causal relationship with the study medication or other factors.
# Serious Adverse Events: A serious adverse event (SAE) is defined as an adverse event that meets any of the following criteria: • Results in death; • Is life-threatening—The term “life-threatening” in the definition of “serious” refers to an event in which the patient was at risk of death at the time of the event. […] Important medical events that may not result in death, be life threatening, or require hospitalization were considered an SAE when, based upon appropriate medical judgment, they may have jeopardized the patient and may have required medical or surgical intervention to prevent one of the outcomes listed above.
# (§1) Analysis of Safety: All analyses of safety were conducted on the safety population, which was defined as all randomized patients. The safety assessment was based on the frequency of adverse events, physical exams, vital signs and safety laboratory tests. AEs with new onset during the study between the initiation of study drug and 30 days after the last dose of study drug for each patient was considered treatment-emergent (TEAEs). This included any AE with onset prior to initiation of study drug and increased severity after the treatment initiation.
# This included overall incidence rates (regardless of severity and relationship to study drug), and incidence rates for moderate or severe adverse events. A summary of SAEs and adverse events leading to early discontinuation (for 30 days) were presented through data listings. Patients who restarted study drug were included in the summary of AEs leading to discontinuation. Safety laboratory tests and vital signs were summarized by post-treatment change from baseline for each of the parameters using descriptive statistics by treatment group. Those patients with significant laboratory abnormalities were identified in data listings. Additional safety parameters were summarized in data listings.
# In addition to the treatment-emergent adverse events analyses, analyses on all AEs (serious and non-serious) and all serious AEs were performed.
# [2] = test system: Lipid, lipoprotein, and inflammatory markers (TG, non-HDL-C, LDL-C, HDL-C, Apo B, hsCRP); experiment: REDUCE-IT: fasting lipid profile and biomarker assays (lipid, lipoprotein, and inflammatory markers) over time; assay type: in vivo, human
# Protocol: Fasting Lipid Profile: The fasting lipid panel included: TG, TC, LDL-C, HDL-C, non-HDL-C, and VLDL-C. At all visits, LDL-C was calculated using the Friedewald equation. At Visit 1 and Visit 1.1 direct LDL-C were used if at the same visit TG>400 mg/dL (4.52 mmol/L). These LDL-C values were used for the evaluation of the LDL-C inclusion criterion (LDL-C qualifying measurements for randomization) and for the assessment of changes in the statin therapy when LDL-C was not at goal. […] In addition, irrespective of the TG levels, at Visit 2 (0 Months of Follow-up, baseline) and at Visit 4 (12 Months of Follow-up), LDL-C were measured by preparative ultracentrifugation. These preparative ultracentrifugation LDL-C measurements were used in the statistical analysis including the calculation of the percent change from baseline (1 year versus baseline). Hopkins LDL-C was calculated for each visit.
# Biomarkers Assays: The biomarker assays included: hsCRP, Apo B and hsTnT.
# The fasting lipid panel was tested at Screening (Visit 1 or Visit 1.1), Randomization visit (Visit 2; Day 0), Visit 3 (Day 120; ˜4 Months) and all other follow-up visits including the last visit. For change from baseline to 1 year preparative ultracentrifugation measurements for LDL-C were analyzed, unless this value was missing. If the LDL-C preparative ultracentrifugation values were missing, then another LDL-C value was used, with prioritization of values obtained from LDL-C Direct measurements, followed by LDL-C derived by the Friedewald calculation (only for subjects with TG<400 mg/dL), and finally LDL-C derived using the calculation published by Hopkins University investigators (Martin S S, Blaha M J, Elshazly M B, et al. Comparison of a novel method vs the Friedewald equation for estimating low-density lipoprotein cholesterol levels from the standard lipid profile. JAMA. 2013; 310:2061-8). In addition, change from baseline to day 120 in LDL-C utilizing Friedewald's and Hopkins methods was analyzed, using the arithmetic mean of LDL-C obtained at Visit 2 (Day 0) and the preceding Visit 1 (or Visit 1.1). If one of these values was missing, the single available LDL-C value was used. LDL-C according to Hopkins was calculated at each visit.
# The randomization visit was considered Baseline. If a baseline value was not available from the randomization visit, then the latest screening value was used. For measurements of lipids, lipoproteins and inflammatory markers, the change and the percent change were summarized at each visit. Since these biomarkers are typically not normally distributed, the Wilcoxon rank-sum test was used for treatment comparisons of the percent change from baseline, and medians and quartiles were provided for each treatment group. The medians of the differences between the treatment groups and 95% CIs were estimated with the Hodges-Lehmann method. In addition, shift-tables were generated as appropriate.
# [3] = REDUCE-IT: serious bleeding treatment-emergent adverse events (adverse events of special interest); assay type: in vivo, human; conditions: Safety population
# Protocol: Adverse Events of Special Interest: Bleeding-related adverse events, glucose control (fasting blood glucose and HbA1c), and indicators of hepatic disorders (e.g., ALT or AST increases >3×ULN, total bilirubin increases of ≥2×ULN) were summarized separately and compared between treatment groups.
# as §1
# This included overall incidence rates (regardless of severity and relationship to study drug), and incidence rates for moderate or severe adverse events. A summary of SAEs and adverse events leading to early discontinuation (for 30 days) were presented through data listings. Patients who restarted study drug were included in the summary of AEs leading to discontinuation. Safety laboratory tests and vital signs were summarized by post-treatment change from baseline for each of the parameters using descriptive statistics by treatment group. […]
# [4] = test system: hypertriglyceridemic patients with cardiovascular disease or at high risk for cardiovascular disease, on statin therapy; assay type: in vivo, human
# Excerpt: The following study, also referred to as the REDUCE-IT clinical trial, was a large cardiovascular (CV) outcome trial designed to assess CV risk reduction benefit of AMR101 treatment (commercially known as VASCEPA®) versus placebo on the 5-point primary composite endpoint: CV death, non-fatal stroke, non-fatal myocardial infarction (MI), coronary revascularizations, or unstable angina requiring hospitalization.
# A multi-center, prospective, randomized, double-blind, placebo-controlled, parallel-group study was performed to evaluate the effect of AMR101 (4 g per day) on cardiovascular health and mortality in hypertriglyceridemic patients with cardiovascular disease or at high risk for cardiovascular disease. The intended expanded indication of the study was treatment with AMR101 as an add-on to statin therapy to reduce the risk of cardiovascular events in patients with clinical cardiovascular disease or with multiple risk factors for cardiovascular disease.
# The primary objective of this study was, in patients at LDL-C goal while on statin therapy, with established cardiovascular disease (CVD) or at high risk for CVD, and hypertriglyceridemia (e.g., fasting triglycerides (TG)≥200 mg/dL and <500 mg/dL), to evaluate the effect of AMR101 4 g daily on time from randomization to first occurrence of any component of the composite of the following major CV events: CV death; nonfatal MI; (including silent MI; electrocardiograms (ECGs) were performed annually for the detection of silent MIs); nonfatal stroke; coronary revascularization; and unstable angina determined to be caused by myocardial ischemia by invasive/non-invasive testing and requiring emergent hospitalization.
# The key secondary objective of this study was to evaluate the effect of AMR101 4 g daily on the time from randomization to the first occurrence of the composite of following major CV events: CV death, nonfatal MI (including silent MI), and nonfatal stroke.
# Other secondary objectives for this study were to evaluate the effect of therapy on time from randomization to the first occurrence of the following individual or composite endpoints: composite of CV death or nonfatal MI (including silent MI); fatal or nonfatal MI (including silent MI); non-elective coronary revascularization represented as the composite of emergent or urgent classifications; CV death; unstable angina determined to be caused by myocardial ischemia by invasive/non-invasive testing and requiring emergent hospitalization; fatal or nonfatal stroke; composite of total mortality, nonfatal MI (including silent MI), or nonfatal stroke; and total mortality.
# Primary Efficacy Endpoint: The primary efficacy endpoint was time from randomization to the first occurrence of the composite of the following clinical events: CV death; nonfatal MI (including silent MI; ECGs were performed annually for the detection of silent MIs); nonfatal stroke; coronary revascularization; and unstable angina determined to be caused by myocardial ischemia by invasive/non-invasive testing and requiring emergent hospitalization. The first occurrence of any of these major adverse vascular events during the follow-up period of the study were included in the incidence.
# Secondary Efficacy Endpoints: The key secondary efficacy endpoint was the time from randomization to the first occurrence of the composite of CV death, nonfatal MI (including silent MI), or nonfatal stroke. […]
compound,measurement,setting,value
"CC/C=C\C/C=C\C/C=C\C/C=C\C/C=C\CCCC(=O)OCC [AMR101, icosapent ethyl]","Pneumonia (serious adverse event), rate",[1]; Safety population,2.6%
same,Rate of anemia (adverse event),[1]; Safety population,4.7%
same,Rate of atrial fibrillation (adverse event),[1]; Safety population,5.3%
same,Rate of diarrhea (adverse event),[1]; Safety population,9%
same,Rate of gastrointestinal adverse events,[1]; Safety population,33.0%
same,Rate of peripheral edema (adverse event),[1]; Safety population,6.5%
same,"Serious TEAE Leading to Death, %",[1]; […],(2.3%)
same,"Serious TEAE, %",[1]; […],(30.6%)
same,"Subjects with at Least One TEAE, %",[1]; […],(81.8%)
same,HDL-C Median Year 1,"[2]; Year 1, Table 18",39.0 mg/dL
same,LDL-C Median Year 1,"[2]; Year 1, Table 18",77.0 mg/dL
same,Non-HDL-C Median Year 1,"[2]; Year 1, Table 18",113.0 mg/dL
same,Triglycerides Median Year 1,"[2]; Year 1, Table 18",175.0 mg/dL
same,Triglycerides: median reduction from baseline greater than in the placebo group (Hodges-Lehmann),"[2]; baseline to one year, vs placebo",19.7%
same,"HDL-C Median Between Group Difference at Year 1, % Change from Baseline","[2]; vs placebo, Table 18",−6.3%
same,"HDL-C Median Between Group Difference at Year 1, Absolute Change from Baseline","[2]; vs placebo, Table 18",-2.5 mg/dL
same,"LDL-C Median Between Group Difference at Year 1, % Change from Baseline","[2]; vs placebo, Table 18",−6.6%
same,"LDL-C Median Between Group Difference at Year 1, Absolute Change from Baseline","[2]; vs placebo, Table 18",-5.0 mg/dL
same,"Non-HDL-C Median Between Group Difference at Year 1, Absolute Change from Baseline","[2]; vs placebo, Table 18",-15.5 mg/dL
same,"Triglycerides Median Between Group Difference at Year 1, % Change from Baseline","[2]; vs placebo, Table 18",−19.7%
same,"Triglycerides Median Between Group Difference at Year 1, Absolute Change from Baseline","[2]; vs placebo, Table 18",-44.5 mg/dL
same,"Serious gastrointestinal bleeding, rate",[3],1.5%
same,Key secondary composite endpoint absolute between-group difference in the rate of the endpoint,[4]; 2 g twice daily vs placebo,3.6 percentage points
same,Primary composite endpoint absolute between-group difference in the rate of the endpoint,[4]; 2 g twice daily vs placebo,4.8 percentage points
same,"Cardiovascular death, % of patients","[4]; 4 g daily, ITT",4.3%
same,"Total mortality, % of patients","[4]; 4 g daily, ITT",6.7%
same,Amputation for PVD (%),[4]; ITT,(0.5%)
same,Cardiac Arrest (%),[4]; ITT,(0.5%)
same,Cardiac Arrhythmias Requiring Hospitalization of ≥24 Hours (%),[4]; ITT,(4.6%)
same,Carotid Revascularization (%),[4]; ITT,(0.8%)
same,Coronary Revascularization (%),[4]; ITT,(9.2%)
same,Elective Revascularization (%),[4]; ITT,(4.7%)
same,Emergent Revascularization (%),[4]; ITT,(1.0%)
same,Hemorrhagic Stroke (%),[4]; ITT,0.3%
same,Ischemic Stroke (%),[4]; ITT,(2.0%)
same,New Heart Failure (%),[4]; ITT,4.1%
same,New Heart Failure Requiring Hospitalization (%),[4]; ITT,(3.4%)
same,Salvage Revascularization (%),[4]; ITT,(0.0%)
same,Sudden Cardiac Death (%),[4]; ITT,(1.5%)
same,Transient Ischemic Attack (%),[4]; ITT,(1.6%)
same,Urgent Revascularization (%),[4]; ITT,(4.4%)
same,Hemorrhagic Stroke (%),"[4]; ITT, listed as Icosapent Ethyl",(0.3%)
same,New Heart Failure (%),"[4]; ITT, listed as Icosapent Ethyl",(4.1%)
same,"Atrial fibrillation or flutter requiring hospitalization (adjudicated tertiary endpoint), % of patients","[4]; human, in vivo",3.1%
same,New Onset of Diabetes (%),[4]; patients with diabetes at baseline excluded,(3.8%)
same,Composite of cardiovascular death or nonfatal myocardial infarction RRR,"[4]; vs placebo, 4 g per day",25%
same,"Composite of total mortality, nonfatal myocardial infarction, or nonfatal stroke reduction (RRR)","[4]; vs placebo, 4 g per day",23%
same,Key secondary composite endpoint relative risk reduction (RRR),"[4]; vs placebo, 4 g per day",26%
same,Primary composite endpoint relative risk reduction (RRR),"[4]; vs placebo, 4 g per day",25%
same,Reduction in heart attack,"[4]; vs placebo, 4 g per day",31%
same,Total mortality reduction (RRR),"[4]; vs placebo, 4 g per day",13%
same,Total mortality HR,"[4]; vs placebo, ITT",0.87
same,Primary composite endpoint number needed to treat (NNT),"[4]; vs placebo, median follow up 4.9 years",21
